# Legend:
# Test in all cases: direct labeling of recombinantly expressed proteins by gel-based ABPP (WT vs lysine mutant)
# Type in all cases: binding
# GSTO1 = target: T1, GSTO1 (Homo sapiens, UniProt P78417); conditions: GSTO1 K57, KR mutant; 10 μM probe, 1 h
# T1 construct: expressed in transfected cells; host or cells: HEK 293T
# T1 sequence (P78417 1-241): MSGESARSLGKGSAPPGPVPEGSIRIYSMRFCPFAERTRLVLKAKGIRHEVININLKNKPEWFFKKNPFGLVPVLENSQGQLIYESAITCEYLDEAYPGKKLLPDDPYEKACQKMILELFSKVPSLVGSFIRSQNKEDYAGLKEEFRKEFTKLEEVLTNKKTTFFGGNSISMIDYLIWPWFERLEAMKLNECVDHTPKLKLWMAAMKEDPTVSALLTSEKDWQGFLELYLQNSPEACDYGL
# HK1 = target: T2, HK1 (Homo sapiens, UniProt P19367); conditions: HK1 K510, KR mutant; 10 μM probe, 1 h
# T2 construct: Flag; expressed in transfected cells; host or cells: HEK 293T
# T2 sequence (P19367 1-917): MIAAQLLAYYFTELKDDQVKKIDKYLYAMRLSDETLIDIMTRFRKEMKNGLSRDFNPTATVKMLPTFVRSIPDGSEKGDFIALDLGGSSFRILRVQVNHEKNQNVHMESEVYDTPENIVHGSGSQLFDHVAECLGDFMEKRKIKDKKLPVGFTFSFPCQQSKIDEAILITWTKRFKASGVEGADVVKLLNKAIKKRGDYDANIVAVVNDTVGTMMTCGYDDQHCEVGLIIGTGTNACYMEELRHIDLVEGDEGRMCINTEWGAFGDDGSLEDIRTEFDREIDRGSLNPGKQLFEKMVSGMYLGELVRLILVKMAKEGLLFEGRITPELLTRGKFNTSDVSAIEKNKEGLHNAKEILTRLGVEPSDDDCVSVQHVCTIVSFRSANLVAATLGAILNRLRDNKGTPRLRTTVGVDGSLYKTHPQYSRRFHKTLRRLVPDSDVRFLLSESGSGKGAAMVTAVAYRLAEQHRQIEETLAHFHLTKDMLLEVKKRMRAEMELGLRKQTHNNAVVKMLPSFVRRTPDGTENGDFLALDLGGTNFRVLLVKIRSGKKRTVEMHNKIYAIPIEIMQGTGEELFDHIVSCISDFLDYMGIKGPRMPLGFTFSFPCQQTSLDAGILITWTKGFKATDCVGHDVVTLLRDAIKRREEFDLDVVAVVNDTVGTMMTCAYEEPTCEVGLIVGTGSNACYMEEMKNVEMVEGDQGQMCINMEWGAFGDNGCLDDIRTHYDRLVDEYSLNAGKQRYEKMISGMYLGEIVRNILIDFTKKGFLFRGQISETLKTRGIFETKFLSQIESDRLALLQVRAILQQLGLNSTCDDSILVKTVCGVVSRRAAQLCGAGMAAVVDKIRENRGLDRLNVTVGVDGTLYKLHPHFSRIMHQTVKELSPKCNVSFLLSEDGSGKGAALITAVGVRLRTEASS
# ADK = target: T3, ADK (Homo sapiens, UniProt P55263); conditions: ADK K88, KR mutant; 10 μM probe, 1 h
# T3 construct: expressed in transfected cells; host or cells: HEK 293T
# T3 sequence (P55263 whole entry): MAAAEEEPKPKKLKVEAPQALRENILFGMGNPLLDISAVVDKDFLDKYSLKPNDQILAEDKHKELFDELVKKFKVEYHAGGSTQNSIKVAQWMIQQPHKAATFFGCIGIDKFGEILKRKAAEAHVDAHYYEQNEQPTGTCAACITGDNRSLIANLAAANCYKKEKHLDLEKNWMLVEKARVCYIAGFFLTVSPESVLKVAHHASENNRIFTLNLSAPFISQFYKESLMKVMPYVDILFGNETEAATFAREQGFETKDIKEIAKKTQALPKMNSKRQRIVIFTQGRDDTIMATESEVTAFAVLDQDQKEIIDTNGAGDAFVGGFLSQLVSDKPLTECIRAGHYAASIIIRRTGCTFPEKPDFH
Compound,labeling of WT vs mutant protein by probe (GSTO1),labeling of WT vs mutant protein by probe (HK1),labeling of WT vs mutant protein by probe (ADK)
"C#CCCC(=O)Oc1c(F)c(F)c(S(=O)(=O)[O-])c(F)c1F.[Na+] [probe 1, reference compound]",PD (the WT labeled more than the mutant (>2x difference quantified)),PD (the WT labeled more than the mutant (>2x difference quantified)),PD (the WT labeled more than the mutant (>2x difference quantified))
"C#CCCC(=O)Oc1c(F)c(F)c(F)c(F)c1F [probe 6, Pentafluorophenyl 4-pentynoate]",ND (the WT did not label more than the mutant (<2x difference quantified)),HD (the WT labeled more than the mutant (>4x difference quantified)),–
"C#Cc1ccc(C(=O)Oc2ccccc2[N+](=O)[O-])cc1 [probe 10, 2-Nitrophenyl 4-ethynylbenzoate]",–,–,HD (the WT labeled more than the mutant (>4x difference quantified))
"C#Cc1ccc(C(=O)Oc2c(F)c(F)cc(F)c2F)cc1 [probe 12, 2,3,5,6-Tetrafluorophenyl 4-ethynylbenzoate]",ND (the WT did not label more than the mutant (<2x difference quantified)),ND (the WT did not label more than the mutant (<2x difference quantified)),HD (the WT labeled more than the mutant (>4x difference quantified))
"C#Cc1ccc(C(=O)Oc2c(F)c(F)c(F)c(F)c2F)cc1 [probe 13, Pentafluorophenyl 4-ethynylbenzoate]",ND (the WT did not label more than the mutant (<2x difference quantified)),ND (the WT did not label more than the mutant (<2x difference quantified)),HD (the WT labeled more than the mutant (>4x difference quantified))
"Cc1cc(C)n2c1C=C1C=CC(CCC(=O)Oc3c(F)c(F)c(S(=O)(=O)[O-])c(F)c3F)=[N+]1[B-]2(F)F.[Na+] [probe 18, reference compound]",ND (the WT did not label more than the mutant (<2x difference quantified)),ND (the WT did not label more than the mutant (<2x difference quantified)),PD (the WT labeled more than the mutant (>2x difference quantified))
